Source: publication PMC8409943, “Study on mechanism of low bioavailability of black tea theaflavins by using Caco-2 cell monolayer” (Drug Delivery, 2021)
Read-outs that look alike come from different tables or passages of the source.

Key:
Caco-2 cells [1] = assay: Cytotoxicity study by CCK-8 method; type: cell-based, Human; conditions: 24 h
Description: Standard stock solutions (1000 μM) of each theaflavin were prepared in 0.1% dimethyl sulfoxide (DMSO) in deionized water, and diluted with fresh DMEM to 100, 200, 300, 400, and 500 µmol/L respectively. Each inhibitor was prepared as instructions. The cytotoxicity of theaflavins and four inhibitors of multidrug resistant associated proteins to Caco-2 cells was examined by CCK-8 method (Song et al., [2014]). Briefly, Caco-2 cells were inoculated onto 96-well microtiter plates at a density of 1 × 10^4 cells per well. After incubation at 37 °C for 24 h, cells were incubated for another 24 h with different concentrations of theaflavins, followed by adding 10 μL CCK-8 solution and 1 h incubation at 37 °C. The absorbance (OD) value was determined at 450 nm using a microplate reader (ELX-800, Bio-Tek Instruments Inc., Winooski, USA). Four inhibitors were used in this study: Vep, inhibitor of P-gp; CsA, inhibitor and substrate of P-gp; MK-571, inhibitor of MRP1, MRP2 and MRP3; FTC, inhibitor of BCRP (Silbermann et al., [1989]; König et al., [1999]; Renes et al., [1999]; Ali et al., [2017]). The cytotoxicity of Vep, CsA, MK-571 or FTC was also determined by CCK-8 assay. […] To determine the effects of inhibitors on the cytotoxicity of theaflavins, cells were incubated with both different theaflavin monomers (100, 200, 300, 400, and 500 μM) and different inhibitors. IC50, the half inhibitory concentration, was calculated from the cell viability. The cell viability was calculated by the following equation: (1) Cell viability (%)=(ODsample− ODblank)/(ODcontrol− ODblank)×100% where ODsample is the absorbance value of cell + sample + complete medium; ODblank, the absorbance value of complete medium; ODcontrol, the absorbance value of cell + complete medium.

[2] = Transepithelial transport of theaflavins across Caco-2 cell monolayers, with or without efflux transporter inhibitors; type: in vitro ADME, Human; conditions: human; for recovery at 2 h, 200 μM: Caco-2, Caco-2 monolayers, after 2 h incubation; for efflux ratio at 2 h, 200 μM / Papp A→B at 2 h, 200 μM / Papp B→A at 2 h, 200 μM: 2 h incubation
Description: (§1) For transport studies, Caco-2 cells were seeded at a density of 3 × 10^5 cells per well in Transwell® inserts (polycarbonate membrane, 24 mm i.d., 0.4 μm pore size, Corning Costar Corp., NY, USA) in 6-well plates (Zhang et al., [2004]). […] The inserts were washed twice with HBSS buffer and equilibrated at 37 °C for 30 min. Standard stock solutions of each theaflavin were diluted to 200 μM with HBSS. For absorptive transport, theaflavins in 1.5 mL HBSS was added into the AP side and 2.6 mL HBSS was added into the BL side of all inserts. For secretory transport, 1.5 mL HBSS and 2.6 mL theaflavins in HBSS were added into AP side and BL side, respectively. Samples were collected from the receiving chamber after 0.5, 1, 2, 3, or 4 h incubation and then were lyophilized at −110 °C in a CoolSafe freeze dryer (LaboGene ApS, Bjarkesvej, Denmark) for HPLC analysis. The recovery rate of theaflavins in the transport was calculated from the above Equation (2).
(§2) Prior to transport inhibition experiment, cells were preincubated for 30 min with 100 μM Vep, 100 μM CsA, 100 μM MK-571, or 10 μM FTC in both sides (Vaidyanathan & Walle, [2001]; Wang et al., [2008]). Then, the absorptive and secretory experiments were performed in the presence of inhibitors as described above. Samples were collected from the receiving chamber after 2 h incubation and then were lyophilized at −110 °C for HPLC analysis.
(§3) The apparent permeability coefficient (Papp, cm/s) was calculated as follows: (3) Papp= dQ/dt×V/(A×C0) where dQ/dt is the variation in concentration on the receiving side over time (μM/s); V, the volume of the solution collected from the receiving chamber (cm^3); A, the area of the membrane (4.67 cm^2); C0, the initial concentration of theaflavins in the donor chamber (μM).
(§4) The efflux ratio was calculated as follows: (4) Efflux ratio= Papp(BL−AP)/Papp(AP−BL) where Papp, apparent permeability coefficient; AP-BL, apical to basolateral transport; BL-AP, basolateral to apical transport.

Caco-2 cell monolayers = assay: as above; type: in vitro ADME, Human; conditions: absorptive transport, 2 h
Description: as §1, §2, §3, §4

MRP2 = assay: Quantitative real-time PCR, mRNA level of MRP2; type: cell-based, Human; conditions: Caco-2 cells, 200 μM, 2 h, vs control
Description: Cell culture and treatment were performed as described above in 2.6. Total RNA was extracted from Caco-2 cells by the cell RNA extraction kit, and then reverse-transcribed by the cDNA synthesis kit. Gene amplification and quantitative detection were performed as previously described (Ai et al., [2019]). Target mRNA levels were normalized to β-actin mRNA levels. Data were calculated by the 2^−ΔΔCT method.

Caco-2 monolayers = assay: HPLC-MS/MS identification of metabolites in the absorptive transport of Caco-2 monolayers; type: in vitro ADME, Human; conditions: 200 µM, 2 h, AP side or BL side of Caco-2 monolayers
Description: TF3G, TF3’G and TFDG were dissolved in DMSO (≤0.5%), and then, diluted with HBSS. Caco-2 cells were incubated with 200 µM TF3G, TF3’G and TFDG at 37 °C for 2 h. Samples collected from both AP side and BL side were measured by HPLC with MS detection, and the metabolites were determined in terms of the standard TF, TF3G, TF3’G, TFDG, and gallic acid (Table S2).

Caco-2 cells [3] = assay: Intracellular accumulation of theaflavin monomers; conditions: 200 μM theaflavins, 2 h incubation, 37 °C
Description: Caco-2 cells were seeded at a density of 8 × 10^4 cells per well in 6-well plates (Ni et al., [2020]). After differentiation over a period of 21 days, cells were incubated with 2.0 mL of 200 μM theaflavins at 37 °C. After 2 h incubation, phosphate buffer was added to wash cells in the plate. Then, cell lysates were prepared with RIPA lysis buffer containing 1 mM PMSF as a protease inhibitor and centrifugated at 12,000 rpm for 30 min. Total protein contents were quantified using a BCA estimation kit according to the manufacturer’s instructions (Beyotime). Theaflavins were quantified by HPLC analysis and the intracellular accumulation was expressed as µg theaflavin/mg protein.
Theaflavins were characterized by high performance liquid chromatography (HPLC, Agilent 1100VL, Agilent Technologies Inc., CA, USA). Briefly, samples were extracted with 70% methanol, centrifuged at 685 × g for 10 min, and filtered through a 0.45 μm membrane (Nylon 66). […] Samples were eluted with a gradient of solvent A (100 mL water with 9 mL acetonitrile and 2 mL acetic acid) and B (100 mL acetonitrile with 17.8 mL water and 2 mL acetic acid) as follows: 0–5 min, 95% A; 5–10 min, 90% A; 10–20 min, 70% A; 20–25 min, 65% A; 25–30 min, 70% A; 30–35 min, 100% A. Theaflavins were detected using an ultraviolet detector at a wavelength of 278 nm.

[4] = Stability (recovery rate) of theaflavins in HBSS and DMEM in the absence of cells
Description: Standard stock solutions of each theaflavin were diluted with HBSS and DMEM respectively, obtaining final test solutions of 200 μM. The recovery rate of theaflavins in HBSS and in DMEM, in the absence of cells, was analyzed by HPLC after incubation at 37 °C for 0.5, 1, 2, 3, 4, 8, 12, and 24 hours, respectively. The recovery rate was used to measure the stability and calculated as follows: (2) Recovery rate=Ct/C0× 100% where Ct is the final concentration at different incubation time (μM); C0, the initial concentration (μM).
Theaflavins were characterized by high performance liquid chromatography (HPLC, Agilent 1100VL, Agilent Technologies Inc., CA, USA). Briefly, samples were extracted with 70% methanol, centrifuged at 685 × g for 10 min, and filtered through a 0.45 μm membrane (Nylon 66). The separation was performed by an ODS reversed-phase column (4.6 mm i.d.×250 mm, SB-C18, Agilent Technologies Inc., CA, USA) at a flow rate of 0.7 mL/min. Chromatographic conditions were slightly modified according to China National Standard (GB/T 30483-2013, GAQSIQ, P. R. China, 2013). Samples were eluted with a gradient of solvent A (100 mL water with 9 mL acetonitrile and 2 mL acetic acid) and B (100 mL acetonitrile with 17.8 mL water and 2 mL acetic acid) as follows: 0–5 min, 95% A; 5–10 min, 90% A; 10–20 min, 70% A; 20–25 min, 65% A; 25–30 min, 70% A; 30–35 min, 100% A. Theaflavins were detected using an ultraviolet detector at a wavelength of 278 nm.

Work on `O=c1c(O)cc([C@H]2Oc3cc(O)cc(O)c3C[C@H]2O)cc2c([C@H]3Oc4cc(O)cc(O)c4C[C@H]3O)cc(O)c(O)c12` [TF, theaflavin] yielded an IC50 (Caco-2 cells [1]; + CsA) of 584 ± 26.9 µM, an IC50 (Caco-2 cells [1]; + FTC) of 492 ± 34.2 µM and an IC50 (Caco-2 cells [1]; + MK-571) of 463 ± 80.8 µM. It also gave an IC50 (Caco-2 cells [1]; + VEP) of 517 ± 66.2 µM, an IC50 (Caco-2 cells [1]; Homo sapiens, Ctrl (no inhibitor)) of 681 ± 19.2 µM and a recovery at 2 h, 200 μM ([2]; apical to basolateral, read-out: recovery of theaflavins in absorptive transport) of 39.8%. It also gave a recovery at 2 h, 200 μM ([2]; basolateral to apical, read-out: recovery of theaflavins in secretory transport) of 48.9%, an efflux ratio at 2 h, 200 μM ([2]; Caco-2, Papp(BL−AP)/Papp(AP−BL), Ctrl (no inhibitor)) of 1.24 ± 0.09 and a Papp A→B at 2 h, 200 μM ([2]; Caco-2, absorptive transport, 200 μM theaflavin in HBSS, Ctrl (no inhibitor)) of 0.277 ± 0.009 ×10⁻⁶ cm/s. The Papp B→A at 2 h, 200 μM ([2]; Caco-2, secretory transport, 200 μM theaflavin in HBSS, Ctrl (no inhibitor)) was 0.342 ± 0.014 ×10⁻⁶ cm/s, the efflux ratio at 2 h, 200 μM ([2]; Caco-2, with 10 μM FTC (BCRP inhibitor), + 10 μM FTC (BCRP inhibitor)) was 1.05 ± 0.08 and the Papp A→B at 2 h, 200 μM ([2]; Caco-2, with 10 μM FTC (BCRP inhibitor), absorptive transport, + 10 μM FTC (BCRP inhibitor)) was 0.31 ± 0.01 ×10⁻⁶ cm/s. The Papp B→A at 2 h, 200 μM ([2]; Caco-2, with 10 μM FTC (BCRP inhibitor), secretory transport, + 10 μM FTC (BCRP inhibitor)) was 0.324 ± 0.013 ×10⁻⁶ cm/s, the efflux ratio at 2 h, 200 μM ([2]; Caco-2, with 100 μM CsA (P-gp inhibitor and substrate), + 100 μM CsA (P-gp inhibitor and substrate)) was 0.62 ± 0.05 and the Papp A→B at 2 h, 200 μM ([2]; Caco-2, with 100 μM CsA (P-gp inhibitor and substrate), absorptive transport, + 100 μM CsA (P-gp inhibitor and substrate)) was 0.565 ± 0.019 ×10⁻⁶ cm/s. It also gave a Papp B→A at 2 h, 200 μM ([2]; Caco-2, with 100 μM CsA (P-gp inhibitor and substrate), secretory transport, + 100 μM CsA (P-gp inhibitor and substrate)) of 0.348 ± 0.014 ×10⁻⁶ cm/s, an efflux ratio at 2 h, 200 μM ([2]; Caco-2, with 100 μM Vep (P-gp inhibitor), + 100 μM Vep (P-gp inhibitor)) of 0.73 ± 0.05 and a Papp A→B at 2 h, 200 μM ([2]; Caco-2, with 100 μM Vep (P-gp inhibitor), absorptive transport, + 100 μM Vep (P-gp inhibitor)) of 0.415 ± 0.014 ×10⁻⁶ cm/s. For the same compound, the Papp B→A at 2 h, 200 μM ([2]; Caco-2, with 100 μM Vep (P-gp inhibitor), secretory transport, + 100 μM Vep (P-gp inhibitor)) was 0.301 ± 0.012 ×10⁻⁶ cm/s, the “increase of the influx” value (Caco-2 cell monolayers; with CsA vs control) was 2.0 times and the “fold increase in the influx” value (Caco-2 cell monolayers; with MK-571 vs control) was 1.47 fold. For the same compound, the “fold increase in the influx” value (Caco-2 cell monolayers; with verapamil vs control) was 1.50 fold, the “decrease of mRNA (transcriptional) level of MRP2” value (MRP2) was 38.73% and the “conjugated metabolites (glucuronidated, sulfated and methylated)” value (Caco-2 monolayers) was “not detected”. For the same compound, the “Contents of theaflavins absorbed in Caco-2 cells” value (Caco-2 cells [3]) was “-”, the “degraded due to the structural instability” value ([4]; 2 h) was 9.3% and the “Recovery rate in DMEM” value ([4]; pH 6.0 DMEM without cells, 200 μM, 37 °C, 2 h incubation) was < 45%.
